Measurements: patent US11845759B2, “Opioid compounds and uses thereof” (priority 2018, dated 2023)

Columns and labels:
[1] = target: T1, μ-opioid receptor (Homo sapiens (Human), UniProt P35372); type: binding
[2] = target: T1, μ-opioid receptor; assay: [35S]GTPγS μ-opioid receptor functional assay; type: biochemical; conditions: for % Response Agonist: Conc. 3 μM, criteria ≥± 50%; for functional profile at μ-opioid receptor (in words): conclusion from Table 23
[3] = Hydrolysis in human blood serum at 37° C.; conditions: 6,14-bis-PEG-Oxycodone (86%, 14% mono-PEG) in human serum, 37° C.
[4] = Hydrolysis in simulated gastric fluid at 37° C.; conditions: 6,14-bis-PEG-Oxycodone (86%, 14% mono-PEG) in simulated gastric fluid (pH=1.2)
[5] = Hydrolysis in simulated intestinal fluid at 37° C.; conditions: 6,14-bis-PEG-Oxycodone (86%, 14% mono-PEG) in simulated Intestinal fluid (pH=6.8), 37° C.
[6] = Hydrolysis in pH buffer/EtOH solutions; type: physicochemical; conditions: 6,14-bis-lauroyl-Oxycodone
[7] = Hydrolysis in HCl solutions; type: physicochemical; conditions: 6,14-bis-lauroyl-Oxycodone, 1.0N HCl (75% EtOH)
[8] = pH 11 buffer (75% EtOH), 0.17 h
[9] = pH 11 buffer (75% EtOH), 22.5 h

COCCOCCOCC(=O)OC1=CCC2(OC(=O)COCCOCCOC)[C@H]3Cc4ccc(OC)c5c4[C@@]2(CCN3C)C1O5 (stereo partly drawn) [6,14-bis-PEG oxycodone]
Ki [1]: 52 nM | Ki compared with that of oxycodone (in words) [1]: comparable | EC50 [2]: 520 nM | % Response Agonist [2]: 85% | functional profile at μ-opioid receptor (in words) [2]: μ-receptor agonist as effective as oxycodone | 6,14-bis-PEG-Oxy (%) ([3]; 0 h): 86% | 6,14-bis-PEG-Oxy (%) ([3]; 0.17 h): 0.71% | 6,14-bis-PEG-Oxy (%) ([3]; 1 h): 0% | 6,14-bis-PEG-Oxy (%) ([4]; 0 h): 86% | 6,14-bis-PEG-Oxy (%) ([4]; 1 h): 77.7% | 6,14-bis-PEG-Oxy (%) ([4]; 2 h): 72.5% | 6,14-bis-PEG-Oxy (%) ([4]; 4 h): 65.6% | 6,14-bis-PEG-Oxy (%) ([4]; 20 h): 30.2% | 6,14-bis-PEG-Oxy (%) ([5]; 0 h): 86% | 6,14-bis-PEG-Oxy (%) ([5]; 0.17 h): 0%

COc1ccc2c3c1OC1C(=O)CCC4(OC(C)=O)C(C2)N(C)CCC314 (stereo not drawn) [14-acetyl oxycodone]
% Response Agonist [2]: 79% | functional profile at μ-opioid receptor (in words) [2]: μ-receptor agonist as effective as oxycodone

COCCOCCOCC(=O)OC1=CC[C@@]2(O)[C@H]3Cc4ccc(OC)c5c4[C@@]2(CCN3C)C1O5 (stereo partly drawn) [6-PEG oxycodone]
Ki [1]: 22 nM | Ki compared with that of oxycodone (in words) [1]: comparable | EC50 [2]: 390 nM | % Response Agonist [2]: 90%

CCCCCCCCCCCC(=O)OC1=CC[C@@]2(OC(=O)CCCCCCCCCCC)[C@H]3Cc4ccc(OC)c5c4[C@@]2(CCN3C)C1O5 (stereo partly drawn) [6,14-bis-lauroyl oxycodone]
6,14-bis-lauroyl-Oxy (%) ([6]; pH 7 buffer (75% EtOH), 0 h): 99% | Oxy (%) ([6]; pH 7 buffer (75% EtOH), 0 h): 0% | mono-lauroyl-Oxy (%) ([6]; pH 7 buffer (75% EtOH), 0 h): 0% | 6,14-bis-lauroyl-Oxy (%) ([6]; pH 7 buffer (75% EtOH), 0.5 h): 98% | Oxy (%) ([6]; pH 7 buffer (75% EtOH), 0.5 h): 0% | mono-lauroyl-Oxy (%) ([6]; pH 7 buffer (75% EtOH), 0.5 h): 1% | 6,14-bis-lauroyl-Oxy (%) ([6]; pH 7 buffer (75% EtOH), 2 h): 98% | Oxy (%) ([6]; pH 7 buffer (75% EtOH), 2 h): 0% | mono-lauroyl-Oxy (%) ([6]; pH 7 buffer (75% EtOH), 2 h): 2% | 6,14-bis-lauroyl-Oxy (%) ([6]; pH 7 buffer (75% EtOH), 4 h): 98% | Oxy (%) ([6]; pH 7 buffer (75% EtOH), 4 h): 0% | mono-lauroyl-Oxy (%) ([6]; pH 7 buffer (75% EtOH), 4 h): 2% | 6,14-bis-lauroyl-Oxy (%) ([6]; pH 7 buffer (75% EtOH), 8 h): 98% | Oxy (%) ([6]; pH 7 buffer (75% EtOH), 8 h): 0% | mono-lauroyl-Oxy (%) ([6]; pH 7 buffer (75% EtOH), 8 h): 2% | 6,14-bis-lauroyl-Oxy (%) ([6]; pH 7 buffer (75% EtOH), 24 h): 94.3% | Oxy (%) ([6]; pH 7 buffer (75% EtOH), 24 h): 0% | mono-lauroyl-Oxy (%) ([6]; pH 7 buffer (75% EtOH), 24 h): 5.7% | 6,14-bis-lauroyl-Oxy (%) ([6]; pH 9 buffer (75% EtOH), 0 h): 99% | Oxy (%) ([6]; pH 9 buffer (75% EtOH), 0 h): 0% | mono-lauroyl-Oxy (%) ([6]; pH 9 buffer (75% EtOH), 0 h): 0% | 6,14-bis-lauroyl-Oxy (%) ([6]; pH 9 buffer (75% EtOH), 0.5 h): 98.7% | Oxy (%) ([6]; pH 9 buffer (75% EtOH), 0.5 h): 0% | mono-lauroyl-Oxy (%) ([6]; pH 9 buffer (75% EtOH), 0.5 h): 1.3% | 6,14-bis-lauroyl-Oxy (%) ([6]; pH 9 buffer (75% EtOH), 2 h): 98.4% | Oxy (%) ([6]; pH 9 buffer (75% EtOH), 2 h): 0% | mono-lauroyl-Oxy (%) ([6]; pH 9 buffer (75% EtOH), 2 h): 1.6% | 6,14-bis-lauroyl-Oxy (%) ([6]; pH 9 buffer (75% EtOH), 8.5 h): 96.2% | Oxy (%) ([6]; pH 9 buffer (75% EtOH), 8.5 h): 0% | mono-lauroyl-Oxy (%) ([6]; pH 9 buffer (75% EtOH), 8.5 h): 3.8% | 6,14-bis-lauroyl-Oxy (%) ([6]; pH 9 buffer (75% EtOH), 22.5 h): 93.4% | Oxy (%) ([6]; pH 9 buffer (75% EtOH), 22.5 h): 0% | mono-lauroyl-Oxy (%) ([6]; pH 9 buffer (75% EtOH), 22.5 h): 6.6% | 6,14-bis-lauroyl-Oxy (%) ([6]; pH 11 buffer (75% EtOH), 0 h): 99% | Oxy (%) ([6]; pH 11 buffer (75% EtOH), 0 h): 0% | mono-lauroyl-Oxy (%) ([6]; pH 11 buffer (75% EtOH), 0 h): 0% | 6,14-bis-lauroyl-Oxy (%) [6, 8]: 83.7% | Oxy (%) [6, 8]: 0.5% | mono-lauroyl-Oxy (%) [6, 8]: 16.3% | 6,14-bis-lauroyl-Oxy (%) ([6]; pH 11 buffer (75% EtOH), 0.5 h): 63.9% | Oxy (%) ([6]; pH 11 buffer (75% EtOH), 0.5 h): 1% | mono-lauroyl-Oxy (%) ([6]; pH 11 buffer (75% EtOH), 0.5 h): 33.1% | 6,14-bis-lauroyl-Oxy (%) ([6]; pH 11 buffer (75% EtOH), 2 h): 14.7% | Oxy (%) ([6]; pH 11 buffer (75% EtOH), 2 h): 2.8% | mono-lauroyl-Oxy (%) ([6]; pH 11 buffer (75% EtOH), 2 h): 60.5% | 6,14-bis-lauroyl-Oxy (%) ([6]; pH 11 buffer (75% EtOH), 8.5 h): 0% | Oxy (%) ([6]; pH 11 buffer (75% EtOH), 8.5 h): 5.4% | mono-lauroyl-Oxy (%) ([6]; pH 11 buffer (75% EtOH), 8.5 h): 94.6% | 6,14-bis-lauroyl-Oxy (%) [6, 9]: 0% | Oxy (%) [6, 9]: 10.2% | mono-lauroyl-Oxy (%) [6, 9]: 89.8% | 6,14-bis-lauroyl-Oxy (%) ([7]; 0 h): 99% | Oxy (%) ([7]; 0 h): 0% | mono-lauroyl-Oxy (%) ([7]; 0 h): 0% | 6,14-bis-lauroyl-Oxy (%) ([7]; 0.5 h): 97% | Oxy (%) ([7]; 0.5 h): 0% | mono-lauroyl-Oxy (%) ([7]; 0.5 h): 2.9% | 6,14-bis-lauroyl-Oxy (%) ([7]; 2 h): 95.1% | Oxy (%) ([7]; 2 h): 0% | mono-lauroyl-Oxy (%) ([7]; 2 h): 4.7% | 6,14-bis-lauroyl-Oxy (%) ([7]; 4 h): 94% | Oxy (%) ([7]; 4 h): 0% | mono-lauroyl-Oxy (%) ([7]; 4 h): 6% | 6,14-bis-lauroyl-Oxy (%) ([7]; 8 h): 91.4% | Oxy (%) ([7]; 8 h): 0% | mono-lauroyl-Oxy (%) ([7]; 8 h): 8.6% | 6,14-bis-lauroyl-Oxy (%) ([7]; 24 h): 77.1% | Oxy (%) ([7]; 24 h): 0% | mono-lauroyl-Oxy (%) ([7]; 24 h): 22.9% | Ki [1]: 22200 nM | Ki compared with that of oxycodone (in words) [1]: significantly higher | binding to μ-opioid receptor (in words) [1]: does not bind to μ-opioid receptor well
